Laboratory results taken from PMC9666501, “Screening for effective cell-penetrating peptides with minimal impact on epithelial cells and gut commensals in vitro” (Frontiers in Pharmacology, 2022).
“Also recorded” adds a separate entry of the source. No end group written: not given here.

Assays:
Caco-2 monolayers [1] = assay: FITC-dextran translocation assay; format: cell-based, human; conditions: for Paracellular permeability of FITC-dextran (Papp A-B): Caco-2 monolayers 21 days, each CPP at a concentration without cytotoxicity, apical, 1 h, 37 °C, pH 7.4, then 1 mg/ml FITC-dextran 4 for 30 min, fluorescence, n = 3; for Paracellular permeability (TEER and FITC-dextran assays collectively) / FITC-dextran translocation: Caco-2 monolayers; for Paracellular permeability (TEER and FITC-dextran assays collectively): in the concentrations tested; for FITC-dextran translocation: CPP 100 µM
Protocol: (§1) For Fluorescein Isothiocyanate (FITC)-Dextran permeability experiments, Caco-2 monolayers differentiated for 21 days were transferred to 12-well plates containing 1.5 ml phenol red free DMEM media (pH 7.4) in the basal compartments. For the treatment, medium in the apical compartment was replaced by 0.5 ml phenol red free DMEM medium containing different concentrations of CPPs, and the plates were incubated at 37 °C for 1 h. Post treatment, inserts were transferred to a new 12-well plate containing 1.5 ml fresh phenol red free DMEM and the apical medium was replaced by medium containing 1 mg/ml FITC-dextran 4 (Sigma-Aldrich). The incubation with the permeability marker lasted for 30 min. Samples were collected from the basolateral compartments post incubation and fluorescence was measured using multi-well fluorescent plate reader (Synergy; excitation wavelength: 490 nm, emission wavelength: 520 nm). The concentration of FITC-dextran in the samples was calculated by comparing the relative fluorescence values to the FITC-dextran standard curve. The apparent permeability coefficient (Papp, cm/s) was calculated according to Eq. 1. Papp=dQ/dt×1/(A×C0), (1) Where dQ/dt is the drug permeation rate (μg/s); a is the surface area of the inserts (cell monolayer) (cm^2); and C0 is the initial concentration at the apical side (μg/ml).

[2] = system: Latilactobacillus sakei ATCC 15521; assay: Broth microdilution antimicrobial assay; format: cell-based; conditions: microbroth dilution in mGAM, anaerobic, 37 °C, 24 h, OD600, CPP 0.01-100 µM
Protocol: (§2) Gut commensal microbial strains used in this study (Table 2) were purchased from […] (ATCC) and DSMZ, Germany. The growth and screening experiments were performed in modified Gifu Anaerobic Medium (mGAM) (HyServe GmbH and Co.) as all the strains could grow well in this media. mGAM was pre-reduced for a minimum of 1 day in the anaerobic chamber (Coy laboratory products Inc.) before use.
(§3) The antimicrobial effects of CPPs were determined by performing microbroth dilution method. The overnight cultures of the strains were diluted 100-fold in mGAM broth and 100 µL of the diluted cultured were distributed in the 96-well microplate. Next, 100 µL of CPPs in their respective concentrations were added to respective wells. Plates were incubated aerobically (Escherichia coli Nissle, Escherichia coli K12, and Saccharomyces boulardii) or anaerobically (rest of the strains) at 37 °C for 24 h with or without shaking, respectively. Reading of each plate was performed by measuring the optical density (OD) at 600 nm in a microplate reader (Synergy™ H1 BioTek). The final absorbance values were normalized and represented as values between 0 and 1 as a heat map, where 0 being full inhibition and 1 being no inhibition. The MIC was determined as the minimum concentration of the CPPs at which no significant growth of the strain was observed as compared to medium only (blank).

[3] = system: Clostridium bolteae DSM 29485; assay: Broth microdilution antimicrobial assay; format: cell-based; conditions: microbroth dilution in mGAM, anaerobic, 37 °C, 24 h, OD600, CPP 0.01-100 µM
Protocol: as §2, §3

[4] = system: Bifidobacterium longum ATCC 15697; assay: Broth microdilution antimicrobial assay; format: cell-based; conditions: microbroth dilution in mGAM, anaerobic, 37 °C, 24 h, OD600, CPP 0.01-100 µM
Protocol: as §2, §3

Caco-2 cells [5] = assay: AlamarBlue cell viability assay; format: cell-based, human; conditions: for Cell toxicity and viability: CPP 50 µM, Cytotox Red and AlamarBlue assays
Protocol: Caco-2 cells were seeded (6 × 10^3 cells/well) in Corning™ Costar™ 96-Well, Cell Culture-Treated, Flat-Bottom Microplate and grown at 37°C with 5% CO2 until reaching confluence. For alamarBlue cell viability staining, cells were exposed to treatments (DMEM + AlamarBlue (10 µL) + CPPs) at different concentrations and incubated for 2 h at 37°C with 5% CO2. Fluorescence was measured with microplate reader Synergy™ H1 BioTek; (excitation wavelength: 560 nm, emission wavelength: 590 nm) and a curve of Relative Fluorescence Units (RFU) against different concentrations of CPPs was plotted.

Caco-2 cells [6] = format: cell-based; conditions: CPP 1, 5, 10, 50, 100 µM in DMEM, 1 h treatment (legend; method says 2 h), 37°C, Incucyte imaging, n = 2
Protocol: Caco-2 cells were seeded (6 × 10^3 cells/well) in Corning™ Costar™ 96-Well, Cell Culture-Treated, Flat-Bottom Microplate and grown at 37°C with 5% CO2 until reaching confluence. […] Fluorescence was measured with microplate reader Synergy™ H1 BioTek; (excitation wavelength: 560 nm, emission wavelength: 590 nm) and a curve of Relative Fluorescence Units (RFU) against different concentrations of CPPs was plotted.
[…] The cells were then imaged using the Incucyte® Live-Cell analysis instrument. Cytotox Red dye dilution: The dye was diluted to a stock concentration of 100 µM in PBS. This was further diluted in full media to yield a final concentration of 250 nM before adding to the cells.

Caco-2 monolayers [7] = assay: Transepithelial electrical resistance (TEER) of Caco-2 monolayers; format: cell-based, human; conditions: for Change in TEER values after 1 h treatment with CPPs: Caco-2 monolayers differentiated 21 days, each CPP at a concentration without cytotoxicity, 37 °C, n = 3, p < 0.01 vs no treatment; for Reduction in TEER: Caco-2 monolayers, CPP 100 µM
Protocol: Transepithelial electrical resistance (TEER) represents the barrier integrity and permeability of the Caco-2 monolayers. To measure TEER, cells were seeded and grown on 12-well cell culture inserts ([…], 1.1 cm, polyethylene terephthalate membrane, cellQART) for a period of 21 days. TEER was measured using Millicell® ERS-2 Voltohmeter (MERS00002), combined with a STX-04 electrode. Final TEER values were expressed relative to the surface area of the inserts (ΩTotal - ΩInsert X cm^2). TEER values were monitored every day from day 14 until day 21, before, and after permeability experiments. On day 21 of differentiation, TEER values of the monolayers were 600 ± 50 Ω X cm^2 (mean ± SD; n = 48).
as §1

Saccharomyces cerevisiae = system: Saccharomyces cerevisiae; design: method as in Palm et al in 2006; conditions: ref Palm et al in 2006; cited from earlier work
Caco-2 monolayers [8] = conditions: cited from earlier work
Protocol: (§4) In the present work we systematically screened for effective CPPs that promote intestinal permeation through paracellular route and have negligible or no harmful effects against human epithelial cells and gut microbial strains. […] The results from the cytotoxicity and cell viability assays were in concordance except for RRL helix and PN159 at 5 µM. This minor difference most likely has to do with the sensitivity of the assay. The reducing capacity of the cells (as measured by AlamarBlue) is not the same as membrane integrity (as measured by Cytotoxic Red).

[9] = system: 10 commensal gut microbial strains; assay: Broth microdilution antimicrobial assay, panel summary; format: cell-based; conditions: range over the strains that were totally inhibited; mGAM, 37 °C, 24 h
Protocol: as §2, §3

[10] = system: Escherichia coli Nissle 1917 (Mutaflor); assay: Broth microdilution antimicrobial assay; format: cell-based; conditions: microbroth dilution in mGAM, aerobic with shaking, 37 °C, 24 h, OD600, CPP 0.01-100 µM
Protocol: as §2, §3

[11] = system: Bifidobacterium adolescentis DSM 20083; assay: Broth microdilution antimicrobial assay; format: cell-based; conditions: microbroth dilution in mGAM, anaerobic, 37 °C, 24 h, OD600, CPP 0.01-100 µM
Protocol: as §2, §3

[12] = rats, without damaging the epithelial barrier integrity, ref Kamei et al., 2008, Morishita et al., Bocsik et al., 2019; cited from earlier work
Protocol: as §4

Sequence | Paracellular permeability of FITC-dextran (Papp A-B) (Caco-2 monolayers [1]) | Minimum inhibitory concentration (MIC) [2] | Minimum inhibitory concentration (MIC) [3] | Minimum inhibitory concentration (MIC) [4] | Cytotoxicity (Cytotox Red dye staining, dead cells) (Caco-2 cells [6]) | Paracellular permeability (TEER and FITC-dextran assays collectively) (Caco-2 monolayers [1]) | other results
KWFKIQMQIRRWKNKR [Penetramax] | highest paracellular permeability | 100 µM | 100 µM | 10 µM | significant toxicity only at the highest concentration tested (100 µM) |  | Cell toxicity and viability (Caco-2 cells [5]): without having significant effects on cell toxicity and viability
LLIILRRRIRKQAHAHSK [pVEC, Protein derived cell-penetrating peptide] |  |  |  |  |  | did not exhibit paracellular permeability | Change in TEER values after 1 h treatment with CPPs (Caco-2 monolayers [7]): significant reduction in TEER values; Concentration without inhibition of growth (Saccharomyces cerevisiae): > 25 µM
RQIKIWFQNRRMKWKK [Penetratin, Protein derived cell-penetrating peptide] |  |  |  |  |  | did not exhibit paracellular permeability | Permeabilizing effect in the Caco-2 monolayer setup (Caco-2 monolayers [1]): no permeabilizing effect; Paracellular permeability of Caco-2 monolayers (Caco-2 monolayers [8]): did not improve paracellular permeability; Change in TEER values after 1 h treatment with CPPs (Caco-2 monolayers [7]): significant reduction in TEER values; Concentration without inhibition of growth (Saccharomyces cerevisiae): > 25 µM
RRLRRLLRRLRRLLRRLR [RRL helix] | highest paracellular permeability | 50 µM | 10 µM | 5 µM | toxic at 5 µM; also recorded: Toxicity from 5 μM |  | MICs over the totally inhibited strains of the panel [9]: 5 to 100 µM; Minimum inhibitory concentration (MIC) [10]: 50 µM; Minimum inhibitory concentration (MIC) [11]: 100 µM; Cell viability (AlamarBlue, % live cells vs control) (Caco-2 cells [5]; CPP 5 µM, 1 h treatment (legend; method says 2 h), 37°C, fluorescence 560/590 nm, n = 3): no significant toxic effect
RRRRRRRR [R8, Synthetic oligoarginine cell-penetrating peptide] |  |  |  |  |  | did not exhibit paracellular permeability | FITC-dextran translocation (Caco-2 monolayers [1]): did not observe reduction in TEER or elevated FITC-dextran translocation; Intestinal absorption of therapeutic peptides [12]: effective tools at improving intestinal absorption of therapeutic peptides; Reduction in TEER (Caco-2 monolayers [7]): did not observe reduction in TEER
RRRRRRRRR [R9, Synthetic oligoarginine cell-penetrating peptide] |  |  |  |  |  | did not exhibit paracellular permeability | FITC-dextran translocation (Caco-2 monolayers [1]): did not observe reduction in TEER or elevated FITC-dextran translocation; Intestinal absorption of therapeutic peptides [12]: effective tools at improving intestinal absorption of therapeutic peptides; Reduction in TEER (Caco-2 monolayers [7]): did not observe reduction in TEER
RWFKIQMQIRRWKNKK [Shuffle] | highest paracellular permeability | 100 µM | 50 µM | 10 µM | significant toxicity only at the highest concentration tested (100 µM) |  | Cell toxicity and viability (Caco-2 cells [5]): without having significant effects on cell toxicity and viability
YGRKKRRQRRR [Tat] |  |  |  |  |  | did not exhibit paracellular permeability | Permeabilizing effect in the Caco-2 monolayer setup (Caco-2 monolayers [1]): no permeabilizing effect
